# Patent US20220001083A1, “METHOD FOR THE MODIFICATION OF A DEVICE SURFACE BY GRAFTING A CD31-DERIVED PEPTIDE ONTO THE SURFACE OF SAID DEVICE” (BALT EXTRUSION, priority 2018, published 2022)
# Tested on: erythrocytes of human peripheral whole blood
# Test: hemolysis assay
# Type: cell-based
# Conditions: photograph of the microplate before absorbance reading
# Procedure: The hemolysis assay is a required biocompatibility test for all blood-contacting devices. […] The hemolysis assay protocol we used was adapted from the one used by Bae and coworkers (Bae, I.-H., Park, I.-K., Park, D. S., Lee, H. and Jeong, M. H. 2012. Journal of Materials Science: Materials in Medicine 23 (5): 1259-1269.) as detailed below.
# Coated and bare CoCr disks were placed in the wells of a 96-well plate and sterilized by a ten minute incubation in 70° ethanol. The disks were rinsed several times in water prior to a final wash in physiological saline solution (0.9% NaCl). […]
# Disk-free wells were used as negative controls and 1% Triton X-100 (which causes the lysis of most erythrocytes through the dissolution of their plasma cell membrane) was added in blood-containing positive control wells. […] Absorbance was measured at 540 nm in a plate reader spectrophotometer (Infinite 200 PRO, TECAN). 540 nm corresponds to the absorbance peak of free hemoglobin, which is released by hemolysis from the erythrocytes. The value of the absorbance at 540 nm is therefore directly proportional to the extent of hemolysis caused by the sample disks in the experimental wells. […]
# For each experiment, these observations were quantified by absorbance reading at 540 nm, and the measurements were normalized using the values obtained with the positive and negative controls, according to the following formula: […]
substance,measurement,value
Triton X-100,macroscopic colour of platelet-poor plasma (hemolysis),effective hemolysis
